The values that follow come from paper PMC9454942, “Novel AR/AR-V7 and Mnk1/2 Degrader, VNPP433-3β: Molecular Mechanisms of Action and Efficacy in AR-Overexpressing Castration Resistant Prostate Cancer In Vitro and In Vivo Models” (Cells, 2022).

Broadly, the Kd is the concentration at which binding is half-saturated. A higher Kd goes with weaker binding.

The assay has as its target T1, androgen receptor (AR) ligand binding domain (Homo sapiens, UniProt P10275).
T1 construct: recombinant human AR LBD
T1 sequence (P10275 669-920 limits assumed): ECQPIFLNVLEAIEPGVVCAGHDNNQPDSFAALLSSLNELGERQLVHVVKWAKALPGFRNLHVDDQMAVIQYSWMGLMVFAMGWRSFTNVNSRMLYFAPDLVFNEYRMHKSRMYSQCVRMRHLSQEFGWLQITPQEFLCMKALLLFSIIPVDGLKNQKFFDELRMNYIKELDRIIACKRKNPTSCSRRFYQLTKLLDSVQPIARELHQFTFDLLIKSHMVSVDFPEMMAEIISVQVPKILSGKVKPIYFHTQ
Put plainly: fluorescence spectroscopy titration with purified AR LBD; supported by CETSA in LNCaP cells.

`C[C@]12CC[C@H](n3ccnc3)CC1=CC[C@@H]1[C@@H]2CC[C@]2(C)C(n3cnc4ccccc43)=CC[C@@H]12` [VNPP433-3β] gave a Kd of 0.36 ± 0.03 µM.
